{"source": "patent US8637073B2", "about": "(priority 2003, dated 2014)", "origin": "cited, not measured here", "conditions": "maintenance of opioid-dependent pregnant women; Eder et al. 2001"}
{"smiles": "CCC(=O)C(CC(C)N(C)C)(c1ccccc1)c1ccccc1", "note": "(stereo not shown) [methadone]", "values": [{"measurement": "neonates in which neonatal abstinence syndrome (NAS) is observed", "value": "60-80%"}]}
